# Experimental data as given in patent US12514842B2, “Use of a benzoate containing composition to treat neurodegenerative disorders” (Rush University Medical Center, priority 2019, dated 2026).
# How the values were obtained:
# [1] = test system: huntingtin (HTT) inclusion bodies; test: Huntingtin inclusion bodies in striatum and cortex by immunohistochemistry and Western blotting; format: in vivo; conditions: N171-82Q Tg mice, about 50 mg/kg body wt/day via gavage, two months
# Protocol: Deposition of huntingtin (HTT) inclusion bodies is a pathological hallmark of Huntington's disease. This pathology is based on an expansion of CAG repeats in exon 1 of the huntingtin gene on chromosome 4 that generates a mutant huntingtin protein leading to abnormal HTT aggregates.
# Briefly, three-month old transgenic mice were treated with GTB (about 50 mg/kg body wt/day) via gavage. Control Huntington's disease mice received only 100 μl 0.5% methylcellulose as vehicle. After two months of treatment, huntingtin inclusion bodies (HTT) were monitored in brain sections (striatal—FIG. 2A, cortical—FIG. 2B) by immunohistochemistry. Further, HTT positive (“(+)ve”) cells were counted in two sections (striatal—FIG. 2C, cortical—FIG. 2D) of each of six mice per group.
# FIG. 2A and 2B show the results from immunohistochemistry, which indicate that administration of GTB reduces the number of HTT inclusion bodies in striatum and cortex. FIGS. 2C and 2D show the number of HTT (+ve) cells in striatum and cortex of GTB treated and untreated mice and indicate a reduction in the number of HTT in treated mice.
# This was also confirmed by Western blotting. By Western blotting, the inventor could detect 348 kDa band of aggregated HTT in the cortex that was inhibited by oral GTB treatment (FIG. 2E-2F).
# microglial activation [2] = test: Microglial activation in striatum (Iba-1 DAB staining, double-label immunofluorescence, Western blot); format: in vivo; conditions: N171-82Q Tg mice, about 50 mg/kg body wt/day via gavage, two months
# Protocol: (§1) Three-month old transgenic mice were treated with GTB (about 50 mg/kg body wt/day) via gavage. Control Huntington's disease mice received only 100 μl 0.5% methylcellulose as vehicle. After two months of treatment, microglial activation was monitored in striatal sections by DAB staining (FIG. 3A) and double-label immunofluorescence (FIG. 3B). The results shown in FIGS. 3A-3G represent an analysis of six mice per group.
# FIG. 3D depicts the Mean Fluorescence Intensity (MFI) of iNOS in control mice (nTg), untreated N171-82Q mice and GTB treated N171-82Q mice. FIG. 3E is the western blot for Iba-1 and iNOS and FIGS. 3F and 3G are a quantitative analysis of the western blot shown in FIG. 3E.
# (§2) As evident from Iba-1 immunostaining as well as Iba-1 Western blot, the inventor found microgliosis in the striatum (FIG. 3) and cortex (FIG. 4) of untreated N171-82Q Tg mice. Activated microglia also express inducible nitric oxide synthase (iNOS).
# [3] = test system: Huntington transgenic (N171-82Q) mice; test: Locomotor activities after glyceryl tribenzoate nebulization in Huntington transgenic mice; format: in vivo; conditions: nebulization about 2 and about 5 mg/kg body wt/day, six weeks
# Description: Since many features of Huntington's disease are modeled in N171-82Q transgenic mice, the effects of glyceryl tribenzoate nebulization on locomotor activities were examined in N171-82Q mice. A Buxco® Inhalation Tower All-In-One Controller was used to nebulize the glyceryl tribenzoate. A whole-body chamber was fitted with aeroneb ultrasonic nebulizers supplied with air from a Buxco® bias flow pump. Huntington transgenic (N171-82Q) mice were allowed to nebulize glyceryl tribenzoate at doses of about 2 and about 5 mg/kg body wt/day (solubilized in a volume of 100 μl saline/mouse) for 3 min. Briefly, three-month old transgenic mice were treated with different doses (about 2 and about 5 mg/kg body wt/d) of glyceryl tribenzoate solubilized in about 100 μl saline via nebulization. Control Huntington's disease mice received only 100 μl saline as vehicle. After six weeks of treatment, locomotor activities were monitored. Data are mean+SEM of three mice per group.
# Velocity refers to the speed at which the mouse walks. Total distance refers to the distance covered by the mouse in a certain period of time. Moving frequency refers to how much a mouse moves around in a given time period and cumulative duration refers to total duration spent at the center.
# [4] = test system: interleukin-6 (IL-6) and IL-1β; test: Serum proinflammatory cytokines by sandwich ELISA; format: in vivo; conditions: N171-82Q mice, 50 mg/kg body wt/d via gavage, 1 month
# Protocol: Three-month old Tg mice (n=3 in each group) were treated with GTB (50 mg/kg body wt/d) mixed with 100 μl 0.5% methylcellulose via gavage. Therefore, control HD mice received only 100 μl 0.5% methylcellulose as vehicle. After 1 month of treatment, levels of interleukin-6 (IL-6) and IL-1β were measured in serum by sandwich ELISA.
# Results are mean+SEM of three mice per group. *p<0.05; ***p<0.001.
# astroglial activation = test: Astroglial activation in striatum and cortex (GFAP DAB staining); format: in vivo; conditions: N171-82Q Tg mice, about 50 mg/kg body wt/day via gavage, two months
# Protocol: Three-month old transgenic (Tg) mice were treated with glyceryl tribenzoate (about 50 mg/kg body wt/day) via gavage. Control Huntington's disease mice received only 100 μl 0.5% methylcellulose as vehicle. After two months of treatment, astroglial activation was monitored in striatal (FIG. 5A) and cortical (FIG. 5B) sections by DAB staining. Further, the number of glial fibrillary acidic protein (GFAP) (+)ve cells were counted in two striatal (FIG. 5C) and cortical (FIG. 5D) sections of each of six mice per group.
# Since astroglia are the major cell type in the CNS, any contribution from this cell type would be significant. Therefore, the inventor also monitored astrogliosis in the CNS of N171-82Q Tg mice.
# microglial activation [5] = test: Microglial activation in cortex (Iba-1 DAB staining, double-label immunofluorescence, Western blot); format: in vivo; conditions: N171-82Q Tg mice, about 50 mg/kg body wt/day via gavage, two months
# Protocol: as §1, with “transgenic (Tg)” for “transgenic”, “glyceryl tribenzoate” for “GTB”, “cortical” for “striatal”, “4A)” for “3A)”, “4B).” for “3B).”, “4A-4B” for “3A-3G”
# FIG. 4D depicts the Mean Fluorescence Intensity (MFI) of iNOS in control mice (nTg), untreated N171-82Q mice and GTB treated N171-82Q mice. FIG. 4E is the western blot for Iba-1 and iNOS and FIGS. 4F and 4G are a quantitative analysis of the western blot shown in FIG. 4E.
# as §2
# BDNF and NT-3 = conditions: brain cells; cited from earlier work
# DJ-1 = conditions: astrocytes and neurons; cited from earlier work
# [6] = test system: multiple sclerosis (MS) in mice; conditions: cited from earlier work
Structure (SMILES),348 kDa band of aggregated HTT in the cortex ([1]; Western blotting),HTT inclusion in the cortex ([1]; immunohistochemistry),HTT inclusion in the striatum ([1]; immunohistochemistry),expression of iNOS in striatum (microglial activation [2]),microgliosis in striatum (microglial activation [2]; Iba-1),velocity ([3]; FIG. 1A),total distance ([3]; FIG. 1B),moving frequency ([3]; FIG. 1C),cumulative duration ([3]; FIG. 1D),rotorod performance ([3]; FIG. 1E),level of IL-1β in serum [4],level of IL-6 in serum [4],"astrogliosis in the CNS (GFAP, striatum and cortex) (astroglial activation)",expression of iNOS in cortex (microglial activation [5]),microgliosis in cortex (microglial activation [5]; Iba-1),production of BDNF (BDNF and NT-3),production of NT-3 (BDNF and NT-3),DJ-1 protein (DJ-1),disease process of multiple sclerosis (MS) [6]
"O=C(OCC(COC(=O)c1ccccc1)OC(=O)c1ccccc1)c1ccccc1 [glyceryl tribenzoate, 2,3-dibenzoyloxypropyl benzoate]",inhibited,significant reduction,significant reduction,significantly inhibited,significantly inhibited,markedly improved,markedly improved,markedly improved,markedly improved,markedly improved,significantly decreases,significantly decreases,reduced,significantly inhibited,significantly inhibited,–,–,–,–
O=C([O-])c1ccccc1.[Na+] [sodium benzoate],–,–,–,–,–,–,–,–,–,–,–,–,–,–,–,increases,increases,up-regulates,suppresses
